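Following 48 hours of exposure in 96-well plates, responses at five concentrations were used to interpolate endpoints linearly. TGI marks complete inhibition of growth.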

What all share (test): NCI-60 cell line screen, 48 h
The subject of assay [1] is RPMI-8226 leukemia.
Assay [2] deals with KM12 colon.
In assay [3] the test system is NCI-H460 lung.
Assay [4] has as its system COLO 205 colon.
In assay [5] the test system is SK-MEL-2 melanoma.
Assay [6] concerns SF-539 CNS.
Assay [7] has as its system HCT-15 colon.
Assay [8] relates to BT-549 breast.
The subject of assay [9] is TK-10 renal.
Assay [10] has as its system OVCAR-3 ovarian.
For assay [11], the system named is NCI-H226 lung.
Assay [12] relates to UACC-257 melanoma.
The subject of assay [13] is HCT-116 colon.
For assay [14], the system named is HT29 colon.
Assay [15] has as its system MDA-MB-435.
Assay [16] concerns DU-145 prostate.
In assay [17] the test system is HL-60(TB) leukemia.
In assay [18] the test system is NCI/ADR-RES ovarian.
The subject of assay [19] is CAKI-1 renal.
For assay [20], the system named is MDA-N.

As for `CCCCCCCCCCCCCCCCCCNc1ccn(C2OC(COP(=O)(O)OC3CC(n4cc(F)c(=O)[nH]c4=O)OC3COP(=O)(O)OCC3OC(n4ccc(N)nc4=O)C(O)C3O)C(O)C2O)c(=O)n1` (stereo unspecified), the TGI in assay [1] was 71.4 µM; in assay [2], 41.5 µM; in [3] it was over 32.7 µM; in [4], over 48.7 µM; in assay [5] it was 37.3 µM; in [6], 2.17 µM. Further, the TGI is 41.4 µM in [7]; 33.4 µM in assay [8]; over 100 µM in assay [9]; over 100 µM in assay [10]; over 82.2 µM in assay [11]; over 57.3 µM in assay [12]. The TGI in assay [13] is over 60.7 µM; in [14] it was over 59.4 µM; in assay [15], over 62.5 µM; in assay [16] it was 39.8 µM; in [17] it was 11.4 µM; in assay [18], 53.5 µM. Further, the TGI in [19] came to 35.5 µM.
With `CC(=O)O[C@@H]1CC[C@@]2(C)C(CC[C@H]3[C@@H]4CC[C@H]([C@H](C)CCc5nc6ccc(C)cc6[nH]5)[C@@]4(C)CC[C@@H]32)C1` (stereo partly specified), the TGI is 84.3 µM in assay [1]; 31.7 µM in assay [2]; over 100 µM in [4]; over 100 µM in assay [5]; over 100 µM in [6]; over 100 µM in assay [7]. The TGI was over 100 µM in assay [8]; over 100 µM in [9]; over 100 µM in [10]; 48.1 µM in [11]; over 100 µM in assay [12]; over 100 µM in assay [13]. In addition, the TGI was 70.7 µM in assay [14]; over 100 µM in assay [15]; over 100 µM in assay [16]; over 100 µM in assay [18]; over 100 µM in assay [19].
Regarding `COCC(N=CN1CCCc2ccccc2[C@@H]1CCCCl)C(C)(C)C` (stereo partly specified), the TGI in assay [1] was 8.95 µM; in assay [2], 20.3 µM; in assay [3], 97.2 µM; in [4], 10.3 µM; in [5] it was 38.3 µM; in [6] it was 24.4 µM. The TGI in assay [7] was over 100 µM; in assay [9], 28.8 µM; in assay [10], 0.729 µM; in assay [11], 23.9 µM; in assay [12], 7.68 µM; in assay [13], 9.48 µM. In addition, the TGI is 69.7 µM in assay [14]; 26.4 µM in [15]; over 100 µM in assay [16]; 8.97 µM in assay [17]; 3.19 µM in assay [18]; 68.2 µM in [20]. Moreover, the TGI in [19] is 31.9 µM.
In the case of `COC(=O)C(C)NP(=O)(N1CC1)N1CC1` (stereo unspecified), the TGI in [1], in [2], in assay [4], in [5], in assay [6] and in assay [7] was over 100 µM each time. The TGI in assay [9], in [12], in [14], in [17] and in [19] was over 100 µM each time.
`COc1cc(S(=O)(=O)Nc2nc(-c3ccc(N4C(=O)CSC4c4cccs4)cc3)cs2)ccc1Cl` (stereo unspecified): the TGI was over 100 µM in assay [2]; over 100 µM in assay [3]; over 100 µM in assay [4]; over 100 µM in assay [5]; over 100 µM in assay [6]; 46.7 µM in assay [7]. Moreover, the TGI in assay [9], in assay [10], in [11], in assay [12], in assay [13] and in [14] was over 100 µM throughout. The TGI in assay [15], in [16], in assay [17], in assay [18], in assay [20] and in [19] was over 100 µM in each case.
As to `CCOC(=O)CCC(NC(=O)c1ccc(CNc2nc3ccccc3nc2C(=O)OCC)cc1)C(=O)OCC` (stereo unspecified), the TGI in assay [1], in assay [2], in assay [4], in [5], in [7] and in assay [9] was over 100 µM throughout. Further, the TGI in [10] is over 100 µM; in assay [11], over 100 µM; in [13], over 100 µM; in [14] it was over 100 µM; in assay [15], 50.3 µM; in [16], over 100 µM. The TGI in assay [18] and in [20] was over 100 µM throughout.
As to `CC[C@](O)(CC(=O)O[C@H]1C(=O)O[C@@H]2C[C@H]3C(C)=CC(=O)[C@@H](O)[C@]3(C)[C@H]3[C@@]4(O)OC[C@]32[C@@H]1[C@@H](C)[C@H]4O)C(C)C`, the TGI was under 0.01 µM in assay [2]; under 0.01 µM in [3]; under 0.01 µM in assay [4]; under 0.01 µM in [5]; under 0.01 µM in assay [6]; under 0.0117 µM in assay [7]. Besides, the TGI in [9], in assay [10], in assay [11], in assay [12], in [13] and in assay [14] was under 0.01 µM in each case. The TGI was under 0.01 µM in assay [15]; under 0.01 µM in assay [16]; under 0.01 µM in assay [17]; 0.242 µM in assay [18]; under 0.01 µM in [20]; 0.0398 µM in assay [19].

(Values after PubChem BioAssay (NCI).)
